The results in this text go back to patent US8901118B2, “Compounds and methods for kinase modulation, and indications therefor” (Plexxikon Inc., priority 2010, dated 2014).

This data set is described as follows: Relative solubility by turbidity in aqueous buffers (pH 1.5, 4.5, 6.8, 7.4). The data set is classed as physicochemical. The conditions noted are these: for turbidity threshold (L, M, H) 1.4: pH 1.5 (SGF); for turbidity threshold (L, M, H) 4.5: pH 4.5 (SIF); for turbidity threshold (L, M, H) 6.8: pH 6.8 (SIF); for turbidity threshold (L, M, H) 7.4: pH 7.4 (HEPES). Summed up: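 Twofold DMSO dilutions of a 25 mM stock were spiked into SGF (0.5M NaCl, pH 1.5), SIF (0.05M NaH2PO4, pH 4.5 and 6.8) or HEPES buffer (10 mM HEPES, 150 mM NaCl, pH 7.4). Absorbance was read at 490, 535 and 650 nm. The endpoint is the concentration crossing O.D. 0.01, averaged across wavelengths.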

Structures are written as SMILES.

In the case of `Clc1cnc2[nH]cc(Cc3cnc(NC4CCCCC4)nc3)c2c1` [Compound P-3001, [5-(5-chloro-1H-pyrrolo[2,3-b]pyridin-3-ylmethyl)-pyrimidin-2-yl]-cyclohexyl-amine], the “turbidity threshold (L, M, H) 1.4” value was “H (high solubility if the threshold concentration is >250 μm)”; the “turbidity threshold (L, M, H) 4.5” value is “L (low solubility if the threshold concentration is <31.3 μM)”; the “turbidity threshold (L, M, H) 6.8” value is reported as “L (low solubility if the threshold concentration is <31.3 μM)”; the “turbidity threshold (L, M, H) 7.4” value was “L (low solubility if the threshold concentration is <31.3 μM)”.

For `COc1ccc(Nc2ccc(C(=O)c3c[nH]c4ncc(C)cc34)c(F)n2)cn1` [Compound P-3040, [2-Fluoro-6-(6-methoxy-pyridin-3-ylamino)-pyridin-3-yl]-(5-methyl-1H-pyrrolo[2,3-b]pyridin-3-yl)-methanone], the “turbidity threshold (L, M, H) 1.4” value is “M (moderate solubility if the threshold concentration is 31.3 μM to 250 μM)”; the “turbidity threshold (L, M, H) 4.5” value is listed as “M (moderate solubility if the threshold concentration is 31.3 μM to 250 μM)”; the “turbidity threshold (L, M, H) 6.8” value is “M (moderate solubility if the threshold concentration is 31.3 μM to 250 μM)”; the “turbidity threshold (L, M, H) 7.4” value was “M (moderate solubility if the threshold concentration is 31.3 μM to 250 μM)”.

With `Cc1cnc2[nH]cc(C(=O)c3ccc(Nc4ccc(C)nc4)nc3F)c2c1` [Compound P-3043, [2-Fluoro-6-(6-methyl-pyridin-3-ylamino)-pyridin-3-yl]-(5-methyl-1H-pyrrolo[2,3-b]pyridin-3-yl)-methanone], the “turbidity threshold (L, M, H) 1.4” value is “M (moderate solubility if the threshold concentration is 31.3 μM to 250 μM)”; the “turbidity threshold (L, M, H) 4.5” value is reported as “M (moderate solubility if the threshold concentration is 31.3 μM to 250 μM)”; the “turbidity threshold (L, M, H) 6.8” value is recorded as “M (moderate solubility if the threshold concentration is 31.3 μM to 250 μM)”; the “turbidity threshold (L, M, H) 7.4” value is given as “M (moderate solubility if the threshold concentration is 31.3 μM to 250 μM)”.

Regarding `Cc1ccc(Nc2ccc(C(=O)c3c[nH]c4ncc(Cl)cc34)c(F)n2)cn1` [Compound P-3044, (5-Chloro-1H-pyrrolo[2,3-b]pyridin-3-yl)-[2-fluoro-6-(6-methyl-pyridin-3-ylamino)-pyridin-3-yl]-methanone], the “turbidity threshold (L, M, H) 1.4” value is “L (low solubility if the threshold concentration is <31.3 μM)”; the “turbidity threshold (L, M, H) 4.5” value is “L (low solubility if the threshold concentration is <31.3 μM)”; the “turbidity threshold (L, M, H) 6.8” value is “L (low solubility if the threshold concentration is <31.3 μM)”; the “turbidity threshold (L, M, H) 7.4” value was “M (moderate solubility if the threshold concentration is 31.3 μM to 250 μM)”.

Turning to `CCOc1ccc(Nc2ccc(C(=O)c3c[nH]c4ncc(C)cc34)c(F)n2)cn1` [Compound P-3045, [6-(6-ethoxy-pyridin-3-ylamino)-2-fluoro-pyridin-3-yl]-(5-methyl-1H-pyrrolo[2,3-b]pyridin-3-yl)-methanone], the “turbidity threshold (L, M, H) 1.4” value is given as “M (moderate solubility if the threshold concentration is 31.3 μM to 250 μM)”; the “turbidity threshold (L, M, H) 4.5” value is reported as “M (moderate solubility if the threshold concentration is 31.3 μM to 250 μM)”; the “turbidity threshold (L, M, H) 6.8” value is “M (moderate solubility if the threshold concentration is 31.3 μM to 250 μM)”; the “turbidity threshold (L, M, H) 7.4” value is “L (low solubility if the threshold concentration is <31.3 μM)”.

With `COc1ccc(Nc2ccc(Cc3c[nH]c4ncnc(C)c34)c(F)n2)cn1` [Compound P-4002, [6-Fluoro-5-(4-methyl-7H-pyrrolo[2,3-d]pyrimidin-5-ylmethyl)-pyridin-2-yl]-(6-methoxy-pyridin-3-yl)-amine], the “turbidity threshold (L, M, H) 1.4” value was “H (high solubility if the threshold concentration is >250 μm)”; the “turbidity threshold (L, M, H) 4.5” value is reported as “M (moderate solubility if the threshold concentration is 31.3 μM to 250 μM)”; the “turbidity threshold (L, M, H) 6.8” value is recorded as “M (moderate solubility if the threshold concentration is 31.3 μM to 250 μM)”; the “turbidity threshold (L, M, H) 7.4” value is listed as “M (moderate solubility if the threshold concentration is 31.3 μM to 250 μM)”.

Regarding `COc1ccc(Nc2ccc(C(=O)c3c[nH]c4ncnc(C5CC5)c34)c(F)n2)cn1` [Compound P-4022, (4-cyclopropyl-7H-pyrrolo[2,3-d]pyrimidin-5-yl)-[2-fluoro-6-(6-methoxy-pyridin-3-ylamino)-pyridin-3-yl]-methanone], the “turbidity threshold (L, M, H) 1.4” value was “H (high solubility if the threshold concentration is >250 μm)”; the “turbidity threshold (L, M, H) 4.5” value was “M (moderate solubility if the threshold concentration is 31.3 μM to 250 μM)”; the “turbidity threshold (L, M, H) 6.8” value is on record as “L (low solubility if the threshold concentration is <31.3 μM)”; the “turbidity threshold (L, M, H) 7.4” value is listed as “L (low solubility if the threshold concentration is <31.3 μM)”.

Turning to `COc1ccc(Nc2ccc(Cc3c[nH]c4ncnc(C5CC5)c34)c(F)n2)cn1` [Compound P-4023, [5-(4-cyclopropyl-7H-pyrrolo[2,3-d]pyrimidin-5-ylmethyl)-6-fluoro-pyridin-2-yl]-(6-methoxy-pyridin-3-yl)-amine], the “turbidity threshold (L, M, H) 1.4” value is on record as “H (high solubility if the threshold concentration is >250 μm)”; the “turbidity threshold (L, M, H) 4.5” value is “M (moderate solubility if the threshold concentration is 31.3 μM to 250 μM)”; the “turbidity threshold (L, M, H) 6.8” value is listed as “L (low solubility if the threshold concentration is <31.3 μM)”; the “turbidity threshold (L, M, H) 7.4” value is “L (low solubility if the threshold concentration is <31.3 μM)”.

As to `CCOc1ccc(Nc2ccc(C(=O)c3c[nH]c4ncnc(OC)c34)c(F)n2)cn1` [Compound P-4024, [6-(6-Ethoxy-pyridin-3-ylamino)-2-fluoro-pyridin-3-yl]-(4-methoxy-7H-pyrrolo[2,3-d]pyrimidin-5-yl)-methanone], the “turbidity threshold (L, M, H) 1.4” value is listed as “M (moderate solubility if the threshold concentration is 31.3 μM to 250 μM)”; the “turbidity threshold (L, M, H) 4.5” value was “L (low solubility if the threshold concentration is <31.3 μM)”; the “turbidity threshold (L, M, H) 6.8” value is “M (moderate solubility if the threshold concentration is 31.3 μM to 250 μM)”; the “turbidity threshold (L, M, H) 7.4” value is given as “M (moderate solubility if the threshold concentration is 31.3 μM to 250 μM)”.

Consider `CCOc1ncnc2[nH]cc(C(=O)c3ccc(Nc4ccc(OC)nc4)nc3F)c12` [Compound P-4025, (4-Ethoxy-7H-pyrrolo[2,3-d]pyrimidin-5-yl)-[2-fluoro-6-(6-methoxy-pyridin-3-ylamino)-pyridin-3-yl]-methanone], for which the “turbidity threshold (L, M, H) 1.4” value is “M (moderate solubility if the threshold concentration is 31.3 μM to 250 μM)”; the “turbidity threshold (L, M, H) 4.5” value was “L (low solubility if the threshold concentration is <31.3 μM)”; the “turbidity threshold (L, M, H) 6.8” value is “L (low solubility if the threshold concentration is <31.3 μM)”; the “turbidity threshold (L, M, H) 7.4” value is “L (low solubility if the threshold concentration is <31.3 μM)”.

`CCn1cc(Nc2ccc(Cc3c[nH]c4ncnc(C5CC5)c34)c(F)n2)cn1` [Compound P-4036, [5-(4-Cyclopropyl-7H-pyrrolo[2,3-d]pyrimidin-5-ylmethyl)-6-fluoro-pyridin-2-yl]-(1-ethyl-1H-pyrazol-4-yl)-amine]: the “turbidity threshold (L, M, H) 1.4” value is recorded as “H (high solubility if the threshold concentration is >250 μm)”; the “turbidity threshold (L, M, H) 4.5” value is on record as “M (moderate solubility if the threshold concentration is 31.3 μM to 250 μM)”; the “turbidity threshold (L, M, H) 6.8” value is reported as “L (low solubility if the threshold concentration is <31.3 μM)”; the “turbidity threshold (L, M, H) 7.4” value is “L (low solubility if the threshold concentration is <31.3 μM)”.

`CCn1cc(Nc2ccc(C(=O)c3c[nH]c4ncnc(C5CC5)c34)c(F)n2)cn1` [Compound P-4037, (4-Cyclopropyl-7H-pyrrolo[2,3-d]pyrimidin-5-yl)-[6-(1-ethyl-1H-pyrazol-4-ylamino)-2-fluoro-pyridin-3-yl]-methanone]: the “turbidity threshold (L, M, H) 1.4” value is “H (high solubility if the threshold concentration is >250 μm)”; the “turbidity threshold (L, M, H) 4.5” value is reported as “M (moderate solubility if the threshold concentration is 31.3 μM to 250 μM)”; the “turbidity threshold (L, M, H) 6.8” value is “M (moderate solubility if the threshold concentration is 31.3 μM to 250 μM)”; the “turbidity threshold (L, M, H) 7.4” value is reported as “M (moderate solubility if the threshold concentration is 31.3 μM to 250 μM)”.

On to `Fc1nc(NC2CCC(F)(F)CC2)ccc1Cc1c[nH]c2ncnc(NCC(F)(F)F)c12` [Compound P-4128, 5-[[6-[(4,4-difluorocyclohexyl)amino]-2-fluoro-3-pyridyl]methyl]-N-(2,2,2-trifluoroethyl)-7H-pyrrolo[2,3-d]pyrimidin-4-amine], for which the “turbidity threshold (L, M, H) 1.4” value is on record as “H (high solubility if the threshold concentration is >250 μm)”; the “turbidity threshold (L, M, H) 4.5” value is on record as “M (moderate solubility if the threshold concentration is 31.3 μM to 250 μM)”; the “turbidity threshold (L, M, H) 6.8” value is listed as “M (moderate solubility if the threshold concentration is 31.3 μM to 250 μM)”; the “turbidity threshold (L, M, H) 7.4” value is “M (moderate solubility if the threshold concentration is 31.3 μM to 250 μM)”.

For the compound `Fc1nc(NC2CCC(F)(F)CC2)ccc1Cc1c[nH]c2ncnc(NC3CC3)c12` [Compound P-4129, N-cyclopropyl-5-[[6-[(4,4-difluorocyclohexyl)amino]-2-fluoro-3-pyridyl]methyl]-7H-pyrrolo[2,3-d]pyrimidin-4-amine], the “turbidity threshold (L, M, H) 1.4” value was “H (high solubility if the threshold concentration is >250 μm)”; the “turbidity threshold (L, M, H) 4.5” value is “M (moderate solubility if the threshold concentration is 31.3 μM to 250 μM)”; the “turbidity threshold (L, M, H) 6.8” value is “M (moderate solubility if the threshold concentration is 31.3 μM to 250 μM)”; the “turbidity threshold (L, M, H) 7.4” value is given as “M (moderate solubility if the threshold concentration is 31.3 μM to 250 μM)”.
